Test results as given in patent US20240300900A1, “HYDROPHILIC AZADIBENZOCYCLOOCTYNE DERIVATIVES AND METAL-FREE CLICK REACTIONS WITH THESE HYDROPHILIC AZADIBENZOCYCLOOCTYNE DERIVATIVES” (Roche Diagnostics Operations, Inc., priority 2021, published 2024).

What was measured:
[1] = Hydrophobicity indicated by reverse phase HPLC (YMC-Triart C18); type: physicochemical; conditions: YMC-Triart C18, 0-100% MeCN in H2O, 0.1% TFA in 25 min; later retention = more hydrophobic
Text: The other way round, an earlier retention corresponded to higher hydrophilie.

[2] = Solubility experiments: successive mixing with water, visual inspection; type: physicochemical; conditions: sonicated 10 s
Text: If solid compound was still visible, this was considered as not dissolved. If no solid compound was visible, this was considered as dissolved.

[3] = theoretical concentration 0.6 mM
[4] = theoretical concentration 6.0 mM
[5] = theoretical concentration 12.4 mM
[6] = theoretical concentration 16.5 mM
[7] = theoretical concentration 515 mM

| Retention Time [1] | dissolved in water (visual inspection) [2, 3] | dissolved in water (visual inspection) [2, 4] | dissolved in water (visual inspection) [2, 5] | dissolved in water (visual inspection) [2, 6] | dissolved in water (visual inspection) [2, 7] | SMILES |
| --- | --- | --- | --- | --- | --- | --- |
| 11.58 min |  |  |  |  |  | O=C(O)CCCNC(=O)CCCC(=O)N1Cc2cc(OC[C@@H](O)CO)ccc2C#Cc2ccc(OC[C@@H](O)CO)cc21 [Compound 7] |
|  | yes | yes | yes | no | no | O=C(CCCC(=O)N1Cc2cc(OC[C@@H](O)CO)ccc2C#Cc2ccc(OC[C@@H](O)CO)cc21)NCCCC(=O)ON1C(=O)CCC1=O [Compound 8] |
| 15.18 min | no | no | no | no | no | O=C(O)CCCCC(=O)N1Cc2ccccc2C#Cc2ccccc21 [Compound 31] |
|  | no | no | no | no | no | O=C(CCC(=O)N1Cc2ccccc2C#Cc2ccccc21)ON1C(=O)CCC1=O [Compound 32] |
